The structures appear in SMILES notation.

One assay deals with COS Cell. Description: COS Cell IC50 (Cell-Based Assay). The following applies: COS cells, cell-based assay per WO 95/10516. How it is done: (§1) FPT IC50 (inhibition of farnesyl protein transferase, in vitro enzyme assay) and COS Cell IC50 (Cell-Based Assay) were determined following the assay procedures described in WO 95/10516, published Apr. 20. 1995. GGFT IC50 (inhibition of geranylgeranyl protein transferase, in vitro enzyme assay), Cell Mat Assay, and anti-tumor activity (in vivo anti-tumor studies) could be determined by the assay procedures described in WO 95/10516. The disclosure of WO 95/10516 is incorporated herein by reference thereto.
For `CC(=O)OC1CCC(C(=O)N2CCC(C3c4ncc(Br)cc4CCc4cc(Cl)cc(Br)c43)CC2)CC1` (stereo not shown) [Compound 69.0], the IC50 (as a rule, the point on the concentration scale where inhibition reaches its midpoint) was 30 nM.

The next assay concerns the target farnesyl protein transferase (UniProt Q02293+Q04631). Description: FPT IC50 (inhibition of farnesyl protein transferase, in vitro enzyme assay). It is filed as biochemical. The following applies: at 140 nM. As for the experimental part:
as §1
In Table 10, “nM” represents nanomolar.
With `COc1ccc2c(c1)CC(CC(=O)N1CCC([C@H]3c4ncc(Br)cc4CCc4cc(Cl)cc(Br)c43)CC1)C2=O` (stereo partly shown) [Compound 17.0B], the “FPT inhibition at 140 nM (printed in FPT IC50 column)” value worked out at 32% at 140.

Staying with this assay, now noted: in vitro enzyme assay per WO 95/10516.
Regarding `CON=C1CCN(CC(=O)N2CCC([C@H]3c4ncc(Br)cc4CCc4cc(Cl)cc(Br)c43)CC2)CC1` [Compound 27.0], the IC50 came out at 6.7 nM.

Regarding `O=C(CN1CCC(=NO)CC1)N1CCC([C@H]2c3ncc(Br)cc3CCc3cc(Cl)cc(Br)c32)CC1` [Compound 26.0], it took 6 nM to reach half-maximal inhibition (IC50).

The compound `CCOC(=O)C(=O)NC1CCC(C(=O)N2CCC(C3c4ncc(Br)cc4CCc4cc(Cl)cc(Br)c43)CC2)CC1` (stereo not shown) [Compound 39.0] returned a half-maximal inhibitory concentration (IC50) of 23 nM.

The compound `O=C(O)CON=C1CCC(CC(=O)N2CCC([C@H]3c4ncc(Br)cc4CCc4cc(Cl)cc(Br)c43)CC2)CC1` (stereo partly shown) [Compound 31.0] displayed an IC50 of 1.9 nM.

`NC(=O)NC1CCCC(C(=O)N2CCC(C3c4ncc(Br)cc4CCc4cc(Cl)cc(Br)c43)CC2)C1` (stereo not shown) [Compound 45.0] yielded an IC50 of 17.6 nM.

Regarding `CON=C1CCC(C(=O)N2CCC([C@H]3c4ncc(Br)cc4CCc4cc(Cl)cc(Br)c43)CC2)CC1` (stereo partly shown) [Compound 35.0], the IC50 was 8.2 nM.

`CC(C)(C)[Si](C)(C)OCCON=C1CCC(CC(=O)N2CCC([C@H]3c4ncc(Br)cc4CCc4cc(Cl)cc(Br)c43)CC2)CC1` (stereo partly shown) [Compound 32.0] showed an IC50 of 97 nM.

Take `O=C(C=C1CCC2(CC1)OCCO2)N1CCC([C@H]2c3ncc(Br)cc3CCc3cc(Cl)cc(Br)c32)CC1` [Compound 21.0]: the IC50 was found to be 10.7 nM.

With `N[C@H]1CC[C@@H](C(=O)N2CCC([C@H]3c4ncc(Br)cc4CCc4cc(Cl)cc(Br)c43)CC2)CC1` [Compound 37.0], the midpoint of inhibition, the IC50, lay at 14 nM. This IC50 and that of the compound before are within 1.5-fold of each other.

In turn, `CC(C)(C)OC(=O)NC1CCC(C(=O)N2CCC(C3c4ncc(Br)cc4CCc4cc(Cl)cc(Br)c43)CC2)CC1` (stereo not shown) [Compound 36.0] showed an IC50 of 67 nM.

The compound `CCOC(=O)C(=O)NC1CCCC(C(=O)N2CCC(C3c4ncc(Br)cc4CCc4cc(Cl)cc(Br)c43)CC2)C1` (stereo not shown) [Compound 46.0] registered an IC50 of 34 nM.

In turn, `CC(=O)OC1CCC(C(=O)N2CCC(C3c4ncc(Br)cc4CCc4cc(Cl)cc(Br)c43)CC2)CC1` (stereo not shown) [Compound 69.0] had an IC50 of 7.8 nM.

Compound `O=C1CCCCC1CC(=O)N1CCC([C@H]2c3ncc(Br)cc3CCc3cc(Cl)cc(Br)c32)CC1` (stereo partly shown) [Compound 18.0] registered an IC50 of 5 nM.

Turning to `O=C(C1CCC2(CC1)OCCO2)N1CCC([C@H]2c3ncc(Br)cc3CCc3cc(Cl)cc(Br)c32)CC1` [Compound 34.0], the IC50 came to 10.7 nM.

`O=C1CCC(C(=O)N2CCC([C@H]3c4ncc(Br)cc4CCc4cc(Cl)cc(Br)c43)CC2)CC1` [Compound 33.0] registered an IC50 of 5.1 nM.

In turn, `NC(=O)C(=O)NC1CCCC(C(=O)N2CCC(C3c4ncc(Br)cc4CCc4cc(Cl)cc(Br)c43)CC2)C1` (stereo not shown) [Compound 49.1] showed an IC50 of 15.6 nM.

In the case of `O=C(C1CCC(O)CC1)N1CCC(C2c3ncc(Br)cc3CCc3cc(Cl)cc(Br)c32)CC1` (stereo not shown) [Compound 70.0], the IC50 worked out at 11 nM.

`CC(C)(C)OC(=O)NC1CCCC(C(=O)N2CCC(C3c4ncc(Br)cc4CCc4cc(Cl)cc(Br)c43)CC2)C1` (stereo not shown) [Compound 43.0]: half-maximal inhibition (IC50) required 150 nM. This IC50 lies about 14-fold higher than the previous one.

As for `O=C(C1CCC(O)CC1)N1CCC(C2c3ncc(Br)cc3CCc3cc(Cl)cc(Br)c32)CC1` (stereo not shown) [Compound 68.0], the IC50 was > 160 nM.

Turning to `O=C(CC1CCC(=NO)CC1)N1CCC([C@H]2c3ncc(Br)cc3CCc3cc(Cl)cc(Br)c32)CC1` (stereo partly shown) [Compound 23.0], the IC50 was determined as 2.7 nM.

`CON=C1CCC(CC(=O)N2CCC([C@H]3c4ncc(Br)cc4CCc4cc(Cl)cc(Br)c43)CC2)CC1` (stereo partly shown) [Compound 25.0] registered an IC50 of 4.4 nM. Against the preceding compound, the IC50 is about 1.6-fold higher.

Compound `CS(=O)(=O)NC1CCC(C(=O)N2CCC(C3c4ncc(Br)cc4CCc4cc(Cl)cc(Br)c43)CC2)CC1` (stereo not shown) [Compound 40.0] showed an IC50 of 2.9 nM.

For `O=C(CN1CCC2(CC1)SCCS2)N1CCC([C@H]2c3ncc(Br)cc3CCc3cc(Cl)cc(Br)c32)CC1` [Compound 28.0], the IC50 was found to be 35 nM.

Consider `C[C@]1(CCC(=O)N2CCC([C@H]3c4ncc(Br)cc4CCc4cc(Cl)cc(Br)c43)CC2)CCCCC1=O` [Compound 20.0], for which the IC50 is 7 nM.

In the case of `O=C1CCCCC1CCC(=O)N1CCC([C@H]2c3ncc(Br)cc3CCc3cc(Cl)cc(Br)c32)CC1` (stereo partly shown) [Compound 19.0], the IC50 came to 10.7 nM.

In turn, `O=C1CCN(CC(=O)N2CCC([C@H]3c4ncc(Br)cc4CCc4cc(Cl)cc(Br)c43)CC2)CC1` [Compound 14.0] yielded an IC50 of 2.6 nM.

Consider `O=C(CC1CCC2(CC1)OCCO2)N1CCC([C@H]2c3ncc(Br)cc3CCc3cc(Cl)cc(Br)c32)CC1` [Compound 24.0], for which half-maximal inhibition (IC50) was put at 4.7 nM.

In the case of `NC(=O)NC1CCC(C(=O)N2CCC(C3c4ncc(Br)cc4CCc4cc(Cl)cc(Br)c43)CC2)CC1` (stereo not shown) [Compound 38.0], 6.2 nM corresponded to half-maximal inhibition (IC50).

In turn, `NC(=O)NN=C1CCC(CC(=O)N2CCC([C@H]3c4ncc(Br)cc4CCc4cc(Cl)cc(Br)c43)CC2)CC1` (stereo partly shown) [Compound 29.0] had an IC50 of 3 nM. Against the preceding compound, the IC50 is about 2.1-fold lower.

Consider `CC(=O)NN=C1CCC(CC(=O)N2CCC([C@H]3c4ncc(Br)cc4CCc4cc(Cl)cc(Br)c43)CC2)CC1` (stereo partly shown) [Compound 30.0], for which half-maximal inhibition (IC50) required 4.3 nM. The IC50 values of the last two compounds are within 1.5-fold of each other.

Regarding `O=C1CCC(CC(=O)N2CCC([C@H]3c4ncc(Br)cc4CCc4cc(Cl)cc(Br)c43)CC2)CC1` [Compound 13.0], the half-inhibitory concentration (IC50) is 2.2 nM.

Compound `NC1CCCC(C(=O)N2CCC(C3c4ncc(Br)cc4CCc4cc(Cl)cc(Br)c43)CC2)C1` (stereo not shown) [Compound 44.0] had an IC50 of 13.9 nM.
